This note sets out measurements from patent US20150037257A1, “COMPOSITIONS AND METHODS FOR HIGH-THROUGHPUT SCREENING IN SKIN FIBROBLASTS WITH AN ALPHA-SYNUCLEIN TRIPLICATION” (priority 2011, published 2015).

Type in all cases: cell-based, human
The subject of experiment [1] is control fibroblasts. Briefly: Dose-response test of control fibroblasts with PQ (cell death). Conditions: 300 uM PQ, 48 hrs. The method, then: (§1) Cell viability was assessed using the CytoTox-ONE Homogeneous Membrane integrity Assay kit (Cat. No 07890, Promega, Madison, Wis.), which is a fluorescent measure of lactate dehydrogenase (LDH) released from cells with a damaged membrane by conversion of resazurin into resorufin. The assay was performed in a 96-well format according to the manufacturers' instructions. Briefly, 10,000 cells/well of control cells and 12,500 cells/well of SNCA-Tri fibroblasts were used for paraquat (PQ) exposure experiments; 12,500 cells/well were used in siRNA knockout experiments. Cell number was measured using WST-1 proliferation reagent (Roche, Indianapolis, Ind.) in a parallel plate.
(§2) Cells were exposed to freshly prepared PQ (N,N′-dimethyl-4,4′-bipyridinium dichloride) (Sigma, M2254) at 300 uM final concentration in culture media for 48 hours without media change prior to analysis.

The subject of experiment [2] is control fibroblasts. Description: Cell viability: LDH release (CytoTox-ONE) after paraquat exposure. The settings on record: controls, 300 uM PQ, 48 hrs. As to the method: as §1, §2
(In general: Release of lactate dehydrogenase indicates damage to the cell membrane.)

Experiment [3] deals with SNCA-Tri fibroblasts. Description: Cell viability: LDH release (CytoTox-ONE) after paraquat exposure / siRNA knockdown. Conditions: 300 uM PQ, 48 hrs. As to the method:
as §1, §2
(§3) The sequence of SNCA1 siRNA were used after the method of Fountaine et al, 2008. Custom siRNA (Dharmacon, Lafayette, Colo.) at a concentration of 75 nM (scrambled or α-syn targeted siRNA, SNCA1) was transfected at 90% cell confluency using […] Lipofectamine™ 2000 (Invitrogen) according to the manufacturer's instruction. Transfection efficiency was tested to be >90% with siGLO Cyclophilin B control siRNA (Dharmacon) in control fibroblasts.

Experiment [4] relates to control fibroblasts. Description: Cellular ATP levels (ATPlite) after paraquat exposure. Conditions: controls, 300 uM PQ, 48 hrs. The method, then:
(§4) Cellular adenosine triphosphate (ATP) levels were measured using the ATPlite kit (Cat. No. 6016943, Perkin Elmer, Waltham, Mass.) based on the reaction of ATP with added lucifcrase and D-luciferin, according to the manufacturer's instruction. ATP synthesis assays were performed on digitonin-treated fibroblasts. Briefly, for paraquat (PQ) exposure, cells were plated (6,000 cells/well in control cells and 7,500 cells/well in SNCA-Tri cells) for 24 hours prior to exposure to PQ.
as §2
Background: In ATP-based viability assays light output follows the ATP content of the culture.

In experiment [5] the test system is SNCA-Tri fibroblasts. Briefly: Cellular ATP levels (ATPlite) after paraquat exposure / siRNA knockdown. Conditions: 300 uM PQ, 48 hrs. The method, then: as §4, §2, §3
Experiment [6] relates to control fibroblasts. Briefly: Mitochondrial membrane potential (TMRM) after paraquat exposure. Conditions: controls, 300 uM PQ, 48 hrs. As to the method: (§5) Fibroblasts were plated in 96-well plates (6,000 cells/well in the control and 7,500 cells/well in SNCA-Tri cells) and were used for paraquat (PQ) exposure experiments. After 24 hours, cells were changed to galactose medium and cultured for another 24 hours. The mitochondrial membrane potential was measured using the fluorescent dye tetramethylrhodamine methyl ester (TMRM) (Invitrogen) at the final concentration of 150 nM. Cells were incubated for 5 minutes at 37° C. and then washed with phosphate buffered saline (PBS). To remove the plasma membrane contribution from the TMRM fluorescence, each assay was performed in parallel with 10 uM carbonyl cyanide 3-chlorophenylhydrazone (CCCP) (Sigma, St Louis, Mo.), which collapses the mitochondrial membrane potential. All data were expressed as the total TMRM fluorescence minus the CCCP-treated TMRM fluorescence. Cell number was measured using WST-1 proliferation reagent in a parallel plate, according to the manufacturer's instruction. All measurements were performed on a TECAN GENios.
as §2

The test system of experiment [7] is SNCA-Tri fibroblasts. Description: Mitochondrial membrane potential (TMRM) after paraquat exposure / siRNA knockdown. The settings on record: 300 uM PQ, 48 hrs. As to the method: as §5, §2, §3
Experiment [8] concerns α-syn mRNA expression in SNCA-Tri fibroblasts. Description: α-syn mRNA expression by qPCR after paraquat exposure. The method, then: as §2
(§6) Total RNA was extracted from fibroblasts using TRIzol® (Invitrogen). cDNA from 0.5 ug total RNA was synthesized by reverse transcriptase (iScript cDNA synthesis kit, BioRad, Hercules, Calif.). Primer sequences of SNCA are SNCA-F: AGTTGTGGCTGCTGCTGAG (SEQ ID NO:1) and SNCA-R: […] (SEQ ID NO:2) and of beta-actin are HuActin-F: […] (SEQ ID NO:3) and HuActin-R: GCATTTGCGGTGGACGAT (SEQ ID NO:4). The PCR products of SNCA and beta-actin (as internal control) were amplified using the SYBR Green PCR Master Mix (Applied Biosystems, Carlsbad, Calif.). Amplification of the PCR products was quantitatively measured by the ABI 7000 Sequence Detection System (Applied Biosystems). 2^−ΔΔCt method was used in all quantitative PCR analyses.

Experiment [9] relates to α-syn mRNA expression in control fibroblasts. The experiment is described as above. Conditions: controls, vs naive expression. As to the method: as §2, §6

As to `C[n+]1ccc(-c2cc[n+](C)cc2)cc1.[Cl-].[Cl-]` [PQ, N,N′-dimethyl-4,4′-bipyridinium dichloride], the cell death entry in [1] is “about 25%”. For the same compound, in experiment [2], the “LDH release, % change untreated vs PQ exposed” value came to 27%. Moreover, the “LDH release change, fold difference SNCA-Tri vs controls” value in experiment [3] (42% vs 27%) was 1.6 fold. Besides, the “increase of LDH release in SNCA-Tri compared to controls after PQ exposure” value in experiment [3] (SNCA-Tri vs controls) is 46%. Further, the “LDH release, % change (increase) untreated vs PQ exposed” value in experiment [3] (SNCA-Tri) came to 42%. For the same compound, the figures for the “Cellular ATP decrease, untreated vs PQ exposed” value in experiment [4] and in [5] (SNCA-Tri) were 33% and 56%, respectively. The “Cellular ATP change, fold change SNCA-Tri vs controls” value in [5] (56% vs 33%) was determined as 1.7 fold. The “decrease of cellular ATP in SNCA-Tri compared to controls after PQ exposure” value in experiment [5] (SNCA-Tri vs controls) is recorded as 59%. Besides, the figures for the “Mitochondrial membrane potential decrease, untreated vs PQ exposed” value in experiment [6] and in [7] (SNCA-Tri) were 40% and 61%, respectively. Also, the “Mitochondrial membrane potential change, fold change SNCA-Tri vs controls” value in [7] (61% vs 40%) came to 1.5 fold. In experiment [7] (SNCA-Tri vs controls), the “reduction of mitochondrial membrane potential in SNCA-Tri compared to controls after PQ exposure” value amounted to 51%. Further, the “increase of α-syn mRNA expression after PQ exposure” value was 7.5 fold in [8] (SNCA-Tri, vs naive expression levels) and 2.6 fold in [9]. In addition, the “α-syn mRNA, fold difference SNCA-Tri over control fibroblasts after PQ treatment” value in experiment [8] (after PQ treatment) is 3.2 fold.
